One block for each molecule: values may come before it.
Assays:
Conditions in all cases: binder
[1] = target: EphA4 (Homo sapiens, UniProt P54764)
[2] = target: HIPK2 (Homo sapiens, UniProt Q9H2X6)
[3] = target: MSSK1 (Homo sapiens, UniProt Q9UPE1)
[4] = target: CK1e (Homo sapiens, UniProt P49674)
[5] = target: T1, BRPF1 (Homo sapiens, UniProt P55201)
T1 sequence (P55201 1-1214): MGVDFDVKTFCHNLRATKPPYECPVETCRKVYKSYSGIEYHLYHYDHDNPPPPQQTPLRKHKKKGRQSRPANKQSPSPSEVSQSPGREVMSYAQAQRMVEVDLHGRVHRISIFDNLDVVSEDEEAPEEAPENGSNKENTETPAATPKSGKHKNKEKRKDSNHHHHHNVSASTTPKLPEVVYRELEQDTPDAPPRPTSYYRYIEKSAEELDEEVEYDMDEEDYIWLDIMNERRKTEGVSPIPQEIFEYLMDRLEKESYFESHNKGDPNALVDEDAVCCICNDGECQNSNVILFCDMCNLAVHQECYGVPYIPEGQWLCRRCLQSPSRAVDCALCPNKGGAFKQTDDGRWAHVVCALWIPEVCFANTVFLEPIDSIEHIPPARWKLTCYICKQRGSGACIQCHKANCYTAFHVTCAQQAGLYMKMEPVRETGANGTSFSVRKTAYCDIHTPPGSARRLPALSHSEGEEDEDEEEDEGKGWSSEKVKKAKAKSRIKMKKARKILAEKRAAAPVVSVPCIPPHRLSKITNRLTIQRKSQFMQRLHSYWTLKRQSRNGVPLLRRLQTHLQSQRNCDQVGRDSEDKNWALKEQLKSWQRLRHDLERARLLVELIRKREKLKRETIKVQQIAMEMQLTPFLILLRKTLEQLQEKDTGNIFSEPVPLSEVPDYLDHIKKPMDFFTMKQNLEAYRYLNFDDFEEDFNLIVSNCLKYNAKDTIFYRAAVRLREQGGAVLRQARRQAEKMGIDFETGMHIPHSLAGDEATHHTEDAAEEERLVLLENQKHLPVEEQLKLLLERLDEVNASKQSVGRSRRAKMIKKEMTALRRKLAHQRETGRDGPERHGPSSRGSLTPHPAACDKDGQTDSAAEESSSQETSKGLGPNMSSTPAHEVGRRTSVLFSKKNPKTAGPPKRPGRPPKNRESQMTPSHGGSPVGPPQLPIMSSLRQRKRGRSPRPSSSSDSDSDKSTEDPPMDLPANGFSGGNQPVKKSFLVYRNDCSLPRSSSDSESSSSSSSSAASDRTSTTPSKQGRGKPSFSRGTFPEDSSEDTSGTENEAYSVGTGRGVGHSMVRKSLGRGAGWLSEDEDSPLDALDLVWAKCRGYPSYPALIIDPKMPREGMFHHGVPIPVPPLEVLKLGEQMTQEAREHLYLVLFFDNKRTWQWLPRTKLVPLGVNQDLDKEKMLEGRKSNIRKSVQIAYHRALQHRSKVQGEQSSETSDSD

[6] = target: T2, EphB1 (Homo sapiens, UniProt P54762)
T2 sequence (P54762 1-984): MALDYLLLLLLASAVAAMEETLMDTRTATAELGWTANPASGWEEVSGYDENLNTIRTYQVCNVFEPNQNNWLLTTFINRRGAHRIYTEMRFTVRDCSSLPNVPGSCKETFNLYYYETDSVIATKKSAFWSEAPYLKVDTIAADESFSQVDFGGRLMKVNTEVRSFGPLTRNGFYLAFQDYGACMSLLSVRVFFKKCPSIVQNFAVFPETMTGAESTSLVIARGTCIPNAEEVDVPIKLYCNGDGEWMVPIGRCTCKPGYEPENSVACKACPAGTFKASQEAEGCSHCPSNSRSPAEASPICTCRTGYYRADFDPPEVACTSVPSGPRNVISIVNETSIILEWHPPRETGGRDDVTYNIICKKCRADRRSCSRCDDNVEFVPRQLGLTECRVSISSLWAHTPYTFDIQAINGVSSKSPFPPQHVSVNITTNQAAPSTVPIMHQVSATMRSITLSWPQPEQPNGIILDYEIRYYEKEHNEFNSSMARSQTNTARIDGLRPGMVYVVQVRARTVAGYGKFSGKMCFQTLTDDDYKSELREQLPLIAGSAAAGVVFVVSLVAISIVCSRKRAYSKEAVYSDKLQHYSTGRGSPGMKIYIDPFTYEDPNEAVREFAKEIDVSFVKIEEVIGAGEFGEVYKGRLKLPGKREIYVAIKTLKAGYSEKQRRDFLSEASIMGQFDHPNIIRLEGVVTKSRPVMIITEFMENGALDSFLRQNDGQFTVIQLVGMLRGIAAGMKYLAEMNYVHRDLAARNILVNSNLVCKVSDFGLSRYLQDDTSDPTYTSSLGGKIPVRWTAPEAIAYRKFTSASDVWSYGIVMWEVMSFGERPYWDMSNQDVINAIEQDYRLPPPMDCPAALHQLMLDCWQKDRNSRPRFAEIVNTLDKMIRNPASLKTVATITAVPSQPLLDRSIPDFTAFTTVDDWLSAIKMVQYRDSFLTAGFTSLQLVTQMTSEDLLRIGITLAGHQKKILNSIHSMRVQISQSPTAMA

[7] = target: T3, NQO2A (Homo sapiens, UniProt P16083)
T3 sequence (P16083 1-231): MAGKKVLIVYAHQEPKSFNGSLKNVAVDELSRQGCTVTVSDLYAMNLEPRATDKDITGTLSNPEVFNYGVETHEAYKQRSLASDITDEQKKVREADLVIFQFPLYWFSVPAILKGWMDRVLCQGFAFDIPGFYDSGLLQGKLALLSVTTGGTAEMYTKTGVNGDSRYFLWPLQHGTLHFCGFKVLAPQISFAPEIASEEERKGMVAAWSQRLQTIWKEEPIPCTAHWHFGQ

[8] = target: Erk3 (Homo sapiens, UniProt Q16659)
Chain of Erk3 (Q16659 whole entry): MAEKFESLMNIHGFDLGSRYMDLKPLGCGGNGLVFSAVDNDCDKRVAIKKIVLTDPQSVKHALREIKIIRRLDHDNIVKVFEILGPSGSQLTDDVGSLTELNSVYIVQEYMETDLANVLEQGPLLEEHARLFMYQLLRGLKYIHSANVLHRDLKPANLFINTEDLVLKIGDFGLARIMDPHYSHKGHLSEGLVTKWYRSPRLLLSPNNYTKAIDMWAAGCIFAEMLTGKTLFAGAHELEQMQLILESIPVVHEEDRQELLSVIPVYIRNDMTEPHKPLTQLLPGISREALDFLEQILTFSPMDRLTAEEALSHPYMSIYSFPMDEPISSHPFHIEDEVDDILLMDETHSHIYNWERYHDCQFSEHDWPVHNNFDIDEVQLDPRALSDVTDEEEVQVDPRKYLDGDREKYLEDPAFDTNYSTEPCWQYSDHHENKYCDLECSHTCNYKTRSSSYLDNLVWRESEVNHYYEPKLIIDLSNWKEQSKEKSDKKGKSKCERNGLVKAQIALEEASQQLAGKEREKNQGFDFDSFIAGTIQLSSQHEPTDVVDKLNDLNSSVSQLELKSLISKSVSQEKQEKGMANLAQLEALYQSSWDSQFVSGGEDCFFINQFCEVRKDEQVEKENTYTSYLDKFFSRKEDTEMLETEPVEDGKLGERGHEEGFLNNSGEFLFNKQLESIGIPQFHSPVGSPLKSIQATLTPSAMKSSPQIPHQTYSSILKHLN

Chain of CK1e (P49674 whole entry): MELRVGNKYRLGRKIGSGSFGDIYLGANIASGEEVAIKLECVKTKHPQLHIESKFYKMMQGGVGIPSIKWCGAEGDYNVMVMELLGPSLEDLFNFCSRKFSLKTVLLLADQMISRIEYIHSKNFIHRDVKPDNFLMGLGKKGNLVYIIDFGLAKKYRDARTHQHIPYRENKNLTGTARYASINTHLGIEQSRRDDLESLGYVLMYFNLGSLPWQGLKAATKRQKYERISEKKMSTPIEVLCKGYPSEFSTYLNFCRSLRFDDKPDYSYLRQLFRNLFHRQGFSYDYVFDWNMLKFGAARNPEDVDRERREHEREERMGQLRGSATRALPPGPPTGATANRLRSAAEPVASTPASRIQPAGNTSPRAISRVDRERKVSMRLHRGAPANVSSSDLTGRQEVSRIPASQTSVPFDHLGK
Chain of MSSK1 (Q9UPE1 whole entry): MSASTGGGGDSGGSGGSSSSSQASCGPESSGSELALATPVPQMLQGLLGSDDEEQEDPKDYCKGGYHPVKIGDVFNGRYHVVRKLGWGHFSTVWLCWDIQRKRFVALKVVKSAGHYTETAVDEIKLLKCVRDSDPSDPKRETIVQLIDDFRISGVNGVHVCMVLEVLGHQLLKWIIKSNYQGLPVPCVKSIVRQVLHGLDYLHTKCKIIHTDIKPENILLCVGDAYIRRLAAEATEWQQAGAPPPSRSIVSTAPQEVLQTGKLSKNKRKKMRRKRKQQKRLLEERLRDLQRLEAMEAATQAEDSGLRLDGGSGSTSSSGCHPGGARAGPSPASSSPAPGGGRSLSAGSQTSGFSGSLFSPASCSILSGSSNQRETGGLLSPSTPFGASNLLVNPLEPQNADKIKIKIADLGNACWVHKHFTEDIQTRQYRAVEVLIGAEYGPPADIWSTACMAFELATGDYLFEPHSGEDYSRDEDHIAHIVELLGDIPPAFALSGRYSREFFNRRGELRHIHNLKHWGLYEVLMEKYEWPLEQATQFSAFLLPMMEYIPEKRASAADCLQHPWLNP
Chain of HIPK2 (Q9H2X6 whole entry): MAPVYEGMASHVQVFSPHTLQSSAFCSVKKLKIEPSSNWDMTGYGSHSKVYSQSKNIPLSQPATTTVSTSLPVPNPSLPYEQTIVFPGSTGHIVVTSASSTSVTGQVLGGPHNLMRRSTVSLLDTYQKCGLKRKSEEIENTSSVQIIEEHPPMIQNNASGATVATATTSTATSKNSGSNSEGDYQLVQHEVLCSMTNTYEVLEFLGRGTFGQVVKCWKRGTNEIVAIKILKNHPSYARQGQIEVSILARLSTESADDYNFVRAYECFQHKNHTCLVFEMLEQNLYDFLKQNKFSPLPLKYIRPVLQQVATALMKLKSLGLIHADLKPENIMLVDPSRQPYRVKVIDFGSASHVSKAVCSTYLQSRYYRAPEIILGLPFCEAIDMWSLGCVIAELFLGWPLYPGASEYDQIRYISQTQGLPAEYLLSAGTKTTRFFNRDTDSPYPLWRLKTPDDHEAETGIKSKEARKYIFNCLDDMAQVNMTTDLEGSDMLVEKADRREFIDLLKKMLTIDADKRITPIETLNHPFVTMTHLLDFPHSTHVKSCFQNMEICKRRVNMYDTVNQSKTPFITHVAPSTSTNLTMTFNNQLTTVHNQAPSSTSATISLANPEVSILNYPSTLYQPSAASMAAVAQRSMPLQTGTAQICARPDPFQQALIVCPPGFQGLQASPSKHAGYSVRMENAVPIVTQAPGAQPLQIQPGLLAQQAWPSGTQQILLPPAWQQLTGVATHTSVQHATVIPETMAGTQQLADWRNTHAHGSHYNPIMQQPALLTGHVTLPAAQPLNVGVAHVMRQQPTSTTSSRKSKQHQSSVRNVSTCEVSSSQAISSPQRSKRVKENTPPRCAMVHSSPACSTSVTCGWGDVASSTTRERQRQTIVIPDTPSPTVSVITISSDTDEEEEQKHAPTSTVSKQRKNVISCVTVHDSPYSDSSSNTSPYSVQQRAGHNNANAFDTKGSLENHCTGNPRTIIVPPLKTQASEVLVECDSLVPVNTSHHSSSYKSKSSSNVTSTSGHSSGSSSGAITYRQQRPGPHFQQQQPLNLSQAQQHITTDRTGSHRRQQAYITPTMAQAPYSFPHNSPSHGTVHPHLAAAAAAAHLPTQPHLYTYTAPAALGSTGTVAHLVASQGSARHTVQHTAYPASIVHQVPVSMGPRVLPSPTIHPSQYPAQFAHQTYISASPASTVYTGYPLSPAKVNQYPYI
Chain of EphA4 (P54764 whole entry): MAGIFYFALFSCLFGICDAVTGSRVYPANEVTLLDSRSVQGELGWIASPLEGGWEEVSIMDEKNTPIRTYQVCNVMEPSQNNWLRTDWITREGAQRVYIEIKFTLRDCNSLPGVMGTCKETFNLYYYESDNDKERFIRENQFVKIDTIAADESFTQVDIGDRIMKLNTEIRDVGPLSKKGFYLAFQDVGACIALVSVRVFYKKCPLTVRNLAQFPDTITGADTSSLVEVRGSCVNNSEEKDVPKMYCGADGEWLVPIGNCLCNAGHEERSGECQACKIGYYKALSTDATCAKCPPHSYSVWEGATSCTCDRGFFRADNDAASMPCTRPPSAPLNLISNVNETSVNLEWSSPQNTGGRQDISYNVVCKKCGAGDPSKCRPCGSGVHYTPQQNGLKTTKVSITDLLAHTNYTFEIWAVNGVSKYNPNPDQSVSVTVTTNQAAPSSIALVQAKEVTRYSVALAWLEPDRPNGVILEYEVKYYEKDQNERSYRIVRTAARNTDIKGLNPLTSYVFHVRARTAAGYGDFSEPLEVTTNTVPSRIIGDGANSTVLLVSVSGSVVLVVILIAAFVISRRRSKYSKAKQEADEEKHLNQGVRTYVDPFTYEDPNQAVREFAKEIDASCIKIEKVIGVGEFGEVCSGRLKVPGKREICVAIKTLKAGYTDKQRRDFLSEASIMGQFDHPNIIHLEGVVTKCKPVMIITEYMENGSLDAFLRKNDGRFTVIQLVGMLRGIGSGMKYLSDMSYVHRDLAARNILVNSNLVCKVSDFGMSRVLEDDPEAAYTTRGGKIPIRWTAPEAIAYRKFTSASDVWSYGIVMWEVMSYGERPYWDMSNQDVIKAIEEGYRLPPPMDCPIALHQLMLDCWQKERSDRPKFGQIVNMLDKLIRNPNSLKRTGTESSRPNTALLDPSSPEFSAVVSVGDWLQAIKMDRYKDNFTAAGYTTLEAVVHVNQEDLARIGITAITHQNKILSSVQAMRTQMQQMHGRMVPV

ΔTm 22 [1]: 2.5 °C
ΔTm 22 [2]: 2.3 °C
ΔTm 22 [3]: -0.1 °C
ΔTm 22 [4]: 6.8 °C
ΔTm 22 [5]: -0.4 °C
ΔTm 22 [6]: 2.6 °C
ΔTm 22 [7]: -0.1 °C
Compound: CNc1ncc2cc(-c3ccc(-c4cccc(C)n4)cc3Cl)c(=O)n(CCC3CCNCC3)c2n1 [compound 22, 6-(2-Chloro-4-(6-methylpyridin-2-yl)phenyl)-2-(methylamino)-8-(2-(piperidin-4-yl)ethyl)pyrido[2,3-d]pyrimidin-7(8H)-one]

ΔTm MRLW5 (20) [8]: 0.5 °C
Compound: CNc1ncc2cc(-c3ccc(-c4cccc(C)n4)cc3Cl)c(=O)n(CCCCN)c2n1 [compound 20, MRLW5]

ΔTm 25 [1]: 1.8 °C
ΔTm 25 [2]: 0.8 °C
ΔTm 25 [3]: -0.4 °C
ΔTm 25 [4]: 8.0 °C
ΔTm 25 [8]: 1.0 °C
ΔTm 25 [5]: -1.4 °C
ΔTm 25 [6]: 3.0 °C
ΔTm 25 [7]: 0.5 °C
Compound: Cc1cccc(-c2ccc(-c3cc4cnc(NCCCc5ccc(N)cc5)nc4n(CCCCN)c3=O)c(Cl)c2)n1 [compound 25, 8-(4-Aminobutyl)-2-((3-(4-aminophenyl)propyl)amino)-6-(2-chloro-4-(6-methylpyridin-2-yl)phenyl)pyrido[2,3-d]pyrimidin-7(8H)-one]

ΔTm MR26 (26) [1]: 2.5 °C
ΔTm MR26 (26) [2]: 0.4 °C
ΔTm MR26 (26) [3]: -0.3 °C
ΔTm MR26 (26) [4]: 7.3 °C
ΔTm MR26 (26) [8]: 0.4 °C
ΔTm MR26 (26) [5]: -1.0 °C
ΔTm MR26 (26) [6]: 3.7 °C
ΔTm MR26 (26) [7]: 0.1 °C
Compound: Cc1cccc(-c2ccc(-c3cc4cnc(NCCCN5CCOCC5)nc4n(CCCCN)c3=O)c(Cl)c2)n1 [compound 26, MR26]

ΔTm 23 [1]: 2.9 °C
ΔTm 23 [2]: 2.1 °C
ΔTm 23 [5]: -1.8 °C
ΔTm 23 [6]: 3.4 °C
Compound: CNc1ncc2cc(-c3ccc(-c4cccc(C)n4)cc3Cl)c(=O)n(C[C@H]3CC[C@H](N)CC3)c2n1 [compound 23, 23]

ΔTm MR24 (24) [1]: -0.3 °C
ΔTm MR24 (24) [2]: 0.4 °C
ΔTm MR24 (24) [3]: -0.2 °C
ΔTm MR24 (24) [4]: 6.4 °C
ΔTm MR24 (24) [8]: 0.4 °C
ΔTm MR24 (24) [5]: -1.5 °C
ΔTm MR24 (24) [6]: 0.2 °C
ΔTm MR24 (24) [7]: 0.3 °C
Compound: Cc1cccc(-c2ccc(-c3cc4cnc(NC(CO)CO)nc4n(CCCCN)c3=O)c(Cl)c2)n1 [compound 24, 8-(4-Aminobutyl)-6-(2-chloro-4-(6-methylpyridin-2-yl)phenyl)-2-((1,3-dihydroxypropan-2-yl)amino)pyrido[2,3-d]pyrimidin-7(8H)-one]

From doi:10.1101/2023.11.24.568596v1 (biorxiv, 2023)
